Results taken from ChEMBL document CHEMBL4725331, “An investigative study of antitumor properties of a novel thiazolo[4,5-d]pyrimidine small molecule revealing superior antitumor activity with CDK1 selectivity and potent pro-apoptotic properties” (Bioorg Med Chem, 2020).

How the values were obtained:
RPMI-8226 = test: Antiproliferative activity against human RPMI-8226 cells assessed as inhibition of cell growth at 10 uM measured after 48 hrs by SRB assay relative to control; format: functional
EKVX = test: Antiproliferative activity against human EKVX cells assessed as inhibition of cell growth at 10 uM measured after 48 hrs by SRB assay relative to control; format: functional
COLO 205 [1] = test: Antiproliferative activity against human COLO 205 cells assessed as inhibition of cell growth at 10 uM measured after 48 hrs by SRB assay relative to control; format: functional
HCC 2998 = test: Antiproliferative activity against human HCC 2998 cells assessed as inhibition of cell growth at 10 uM measured after 48 hrs by SRB assay relative to control; format: functional
SF-268 = test: Antiproliferative activity against human SF-268 cells assessed as inhibition of cell growth at 10 uM measured after 48 hrs by SRB assay relative to control; format: functional
UACC-62 = test: Antiproliferative activity against human UACC-62 cells assessed as inhibition of cell growth at 10 uM measured after 48 hrs by SRB assay relative to control; format: functional
NCI/ADR-RES [2] = test: Antiproliferative activity against human NCI/ADR-RES cells assessed as inhibition of cell growth at 10 uM measured after 48 hrs by SRB assay relative to control; format: functional
786-0 [3] = test: Antiproliferative activity against human 786-0 cells assessed as inhibition of cell growth at 10 uM measured after 48 hrs by SRB assay relative to control; format: functional
ACHN [4] = test: Antiproliferative activity against human ACHN cells assessed as inhibition of cell growth at 10 uM measured after 48 hrs by SRB assay relative to control; format: functional
TK-10 = test: Antiproliferative activity against human TK-10 cells assessed as inhibition of cell growth at 10 uM measured after 48 hrs by SRB assay relative to control; format: functional
PC-3 = test: Antiproliferative activity against human PC-3 cells assessed as inhibition of cell growth at 10 uM measured after 48 hrs by SRB assay relative to control; format: functional
T47D [5] = test: Antiproliferative activity against human T47D cells assessed as inhibition of cell growth at 10 uM measured after 48 hrs by SRB assay relative to control; format: functional
SK-MEL-5 = test: Antiproliferative activity against human SK-MEL-5 cells assessed as inhibition of cell growth at 10 uM measured after 48 hrs by SRB assay relative to control; format: functional
HL-60(TB) = test: Antiproliferative activity against human HL-60(TB) cells assessed as inhibition of cell growth measured after 48 hrs by SRB assay; format: functional
HOP-62 = test: Antiproliferative activity against human HOP-62 cells assessed as inhibition of cell growth measured after 48 hrs by SRB assay; format: functional
NCI-H522 = test: Antiproliferative activity against human NCI-H522 cells assessed as inhibition of cell growth measured after 48 hrs by SRB assay; format: functional
COLO 205 [6] = test: Antiproliferative activity against human COLO 205 cells assessed as inhibition of cell growth measured after 48 hrs by SRB assay; format: functional
SF-539 = test: Antiproliferative activity against human SF-539 cells assessed as inhibition of cell growth measured after 48 hrs by SRB assay; format: functional
Malme-3M = test: Antiproliferative activity against human Malme-3M cells assessed as inhibition of cell growth measured after 48 hrs by SRB assay; format: functional
MDA-MB-435 = test: Antiproliferative activity against human MDA-MB-435 cells assessed as inhibition of cell growth measured after 48 hrs by SRB assay; format: functional
SK-MEL-28 = test: Antiproliferative activity against human SK-MEL-28 cells assessed as inhibition of cell growth measured after 48 hrs by SRB assay; format: functional
NCI/ADR-RES [7] = test: Antiproliferative activity against human NCI/ADR-RES cells assessed as inhibition of cell growth measured after 48 hrs by SRB assay; format: functional
SK-OV-3 = test: Antiproliferative activity against human SK-OV-3 cells assessed as inhibition of cell growth measured after 48 hrs by SRB assay; format: functional
786-0 [8] = test: Antiproliferative activity against human 786-0 cells assessed as inhibition of cell growth measured after 48 hrs by SRB assay; format: functional
ACHN [9] = test: Antiproliferative activity against human ACHN cells assessed as inhibition of cell growth measured after 48 hrs by SRB assay; format: functional
DU-145 = test: Antiproliferative activity against human DU-145 cells assessed as inhibition of cell growth measured after 48 hrs by SRB assay; format: functional
MDA-MB-468 = test: Antiproliferative activity against human MDA-MB-468 cells assessed as inhibition of cell growth measured after 48 hrs by SRB assay; format: functional
T47D [10] = test: Antiproliferative activity against human T47D cells assessed as inhibition of cell growth measured after 48 hrs by SRB assay; format: functional
HCT-116 [11] = test: Cell cycle arrest in human HCT-116 cells assessed as accumulation in S phase phase at IC50 concentration incubated for 48 hrs by propidium iodide staining based flow cytometry analysis (reference value: 41.34 %); format: functional
WI-38 [12] = test: Cell cycle arrest in human WI-38 cells assessed as accumulation in G2/M phase phase at IC50 concentration incubated for 48 hrs by propidium iodide staining based flow cytometry analysis (reference value: 7.16 %); settings: wi-38, 48 h
WI-38 [13] = test: Induction of apoptosis in human WI-38 cells assessed as early apoptotic cells at IC50 incubated for 48 hrs by annexin-V FITC and propidium iodide staining based flow cytometry analysis (reference value: 0.39 %); format: cell-based; settings: wi-38, 48 h
WI-38 [14] = test: Induction of apoptosis in human WI-38 cells assessed as late apoptotic cells at IC50 incubated for 48 hrs by annexin-V FITC and propidium iodide staining based flow cytometry analysis (reference value: 0.29 %); format: cell-based; settings: wi-38, 48 h
HCT-116 [15] = test: Induction of apoptosis in human HCT116 cells assessed as increase in p53 gene expression by RT-PCR analysis relative to untreated control; format: functional
HCT-116 [16] = test: Induction of apoptosis in human HCT116 cells assessed as increase in Bax gene expression by RT-PCR analysis relative to untreated control; format: functional
[17] = read-out: LC50 (the source's name)

Work on `COc1ccc(-n2c(=S)sc3c(Cl)nc(C)nc32)c(OC)c1` yielded an inhibition at 10 µM (RPMI-8226) greater than 50%, an inhibition at 10 µM (EKVX) greater than 50% and an inhibition at 10 µM (COLO 205 [1]) greater than 50%. It also gave an inhibition at 10 µM (HCC 2998) greater than 50%, an inhibition at 10 µM (SF-268) greater than 50% and an inhibition at 10 µM (UACC-62) greater than 50%. The inhibition at 10 µM (NCI/ADR-RES [2]) was greater than 50%, the inhibition at 10 µM (786-0 [3]) was greater than 50% and the inhibition at 10 µM (ACHN [4]) was greater than 50%. For the same compound, the inhibition at 10 µM (TK-10) was greater than 50%, the inhibition at 10 µM (PC-3) was greater than 50% and the inhibition at 10 µM (T47D [5]) was greater than 50%. It also gave an inhibition at 10 µM (SK-MEL-5) greater than 50%, a GI50 (HL-60(TB)) of 1.41 µM and a TGI (HL-60(TB)) of 5.89 µM. The CC50 (HL-60(TB); [17]) was greater than 100 µM, the GI50 (HOP-62) was 2.57 µM and the TGI (HOP-62) was 7.76 µM. It also gave a CC50 (HOP-62; [17]) of 26.9 µM, a GI50 (NCI-H522) of 1.82 µM and a TGI (NCI-H522) of 3.89 µM. For the same compound, the CC50 (NCI-H522; [17]) was 8.32 µM, the GI50 (COLO 205 [6]) was 3.8 µM and the TGI (COLO 205 [6]) was 13.2 µM. It also gave a CC50 (COLO 205 [6]; [17]) of 47.9 µM, a GI50 (SF-539) of 2.09 µM and a TGI (SF-539) of 4.57 µM. It also gave a CC50 (SF-539; [17]) of 10 µM, a GI50 (Malme-3M) of 2.24 µM and a TGI (Malme-3M) of 6.17 µM. For the same compound, the CC50 (Malme-3M; [17]) was 27.5 µM, the GI50 (MDA-MB-435) was 2.14 µM and the TGI (MDA-MB-435) was 3.89 µM. For the same compound, the CC50 (MDA-MB-435; [17]) was 7.24 µM, the GI50 (SK-MEL-28) was 2.19 µM and the TGI (SK-MEL-28) was 4.57 µM. For the same compound, the CC50 (SK-MEL-28; [17]) was 9.77 µM, the GI50 (NCI/ADR-RES [7]) was 13.2 µM and the TGI (NCI/ADR-RES [7]) was 72.4 µM. The CC50 (NCI/ADR-RES [7]; [17]) was greater than 100 µM, the GI50 (SK-OV-3) was 14.1 µM and the TGI (SK-OV-3) was 27.5 µM. The CC50 (SK-OV-3; [17]) was 52.5 µM, the GI50 (786-0 [8]) was 4.47 µM and the TGI (786-0 [8]) was 20.4 µM. The CC50 (786-0 [8]; [17]) was 81.3 µM, the GI50 (ACHN [9]) was 2.09 µM and the TGI (ACHN [9]) was 3.98 µM. The CC50 (ACHN [9]; [17]) was 7.59 µM, the GI50 (DU-145) was 1.86 µM and the TGI (DU-145) was 3.24 µM. For the same compound, the CC50 (DU-145; [17]) was 5.75 µM, the GI50 (MDA-MB-468) was 2 µM and the TGI (MDA-MB-468) was 6.61 µM. For the same compound, the CC50 (MDA-MB-468; [17]) was 93.3 µM, the GI50 (T47D [10]) was 6.46 µM and the TGI (T47D [10]) was 21.9 µM. For the same compound, the CC50 (T47D [10]; [17]) was 56.2 µM, the Activity (HCT-116 [11]) was 30.1% and the Activity (WI-38 [12]) was 12.27%. The Activity (WI-38 [13]) was 3.59%, the Activity (WI-38 [14]) was 2.99% and the “fold change (FC)” value (HCT-116 [15]) was 13.1. The “fold change (FC)” value (HCT-116 [16]) was 9.9.
